Measured values: ChEMBL document CHEMBL1151030, “Synthesis of tetrazol-1-yl analogs of HMG-COA reductase inhibitor BMS180431 (formerly BMY21950)” (Bioorg Med Chem Lett, 1992)

Experiments:
HepG2 = assay: Ratio of inhibitory activity against HMG-CoA reductase of HepG2 cells vs hepatocytes; format: cell-based
[1] = target: T1, 3-hydroxy-3-methylglutaryl-coenzyme A reductase (Homo sapiens, UniProt P04035); assay: Compound was evaluated for inhibitory activity against HMG-CoA reductase in HepG2 cells; format: cell-based
T1 sequence (P04035 whole entry): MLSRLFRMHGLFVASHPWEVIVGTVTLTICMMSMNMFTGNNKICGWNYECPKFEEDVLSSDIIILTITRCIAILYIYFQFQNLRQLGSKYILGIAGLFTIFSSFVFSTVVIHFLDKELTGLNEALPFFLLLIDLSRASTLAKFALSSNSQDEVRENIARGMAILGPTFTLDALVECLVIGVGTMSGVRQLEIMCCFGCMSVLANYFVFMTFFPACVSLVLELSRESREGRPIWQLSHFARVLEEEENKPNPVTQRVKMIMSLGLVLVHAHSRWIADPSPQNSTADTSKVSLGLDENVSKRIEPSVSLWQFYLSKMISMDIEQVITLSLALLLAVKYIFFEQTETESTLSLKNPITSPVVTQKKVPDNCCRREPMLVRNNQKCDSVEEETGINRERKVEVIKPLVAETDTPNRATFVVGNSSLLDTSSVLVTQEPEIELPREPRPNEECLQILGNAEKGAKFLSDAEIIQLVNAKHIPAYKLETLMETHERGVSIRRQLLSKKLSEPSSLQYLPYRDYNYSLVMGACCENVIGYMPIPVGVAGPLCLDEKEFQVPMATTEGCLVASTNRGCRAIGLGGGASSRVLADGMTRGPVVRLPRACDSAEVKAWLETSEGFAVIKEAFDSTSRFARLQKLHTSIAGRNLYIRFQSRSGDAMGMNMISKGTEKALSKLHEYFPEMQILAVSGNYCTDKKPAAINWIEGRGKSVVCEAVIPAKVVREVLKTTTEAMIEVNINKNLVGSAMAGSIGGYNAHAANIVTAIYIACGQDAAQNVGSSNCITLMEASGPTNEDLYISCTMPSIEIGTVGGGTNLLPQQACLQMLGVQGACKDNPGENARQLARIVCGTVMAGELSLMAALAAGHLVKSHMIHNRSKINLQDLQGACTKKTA

[2] = target: T2, 3-hydroxy-3-methylglutaryl-coenzyme A reductase (Rattus norvegicus, UniProt P51639); assay: Compound was evaluated for inhibitory activity against HMG-CoA reductase from rat hepatocyte; format: cell-based
T2 sequence (P51639 whole entry): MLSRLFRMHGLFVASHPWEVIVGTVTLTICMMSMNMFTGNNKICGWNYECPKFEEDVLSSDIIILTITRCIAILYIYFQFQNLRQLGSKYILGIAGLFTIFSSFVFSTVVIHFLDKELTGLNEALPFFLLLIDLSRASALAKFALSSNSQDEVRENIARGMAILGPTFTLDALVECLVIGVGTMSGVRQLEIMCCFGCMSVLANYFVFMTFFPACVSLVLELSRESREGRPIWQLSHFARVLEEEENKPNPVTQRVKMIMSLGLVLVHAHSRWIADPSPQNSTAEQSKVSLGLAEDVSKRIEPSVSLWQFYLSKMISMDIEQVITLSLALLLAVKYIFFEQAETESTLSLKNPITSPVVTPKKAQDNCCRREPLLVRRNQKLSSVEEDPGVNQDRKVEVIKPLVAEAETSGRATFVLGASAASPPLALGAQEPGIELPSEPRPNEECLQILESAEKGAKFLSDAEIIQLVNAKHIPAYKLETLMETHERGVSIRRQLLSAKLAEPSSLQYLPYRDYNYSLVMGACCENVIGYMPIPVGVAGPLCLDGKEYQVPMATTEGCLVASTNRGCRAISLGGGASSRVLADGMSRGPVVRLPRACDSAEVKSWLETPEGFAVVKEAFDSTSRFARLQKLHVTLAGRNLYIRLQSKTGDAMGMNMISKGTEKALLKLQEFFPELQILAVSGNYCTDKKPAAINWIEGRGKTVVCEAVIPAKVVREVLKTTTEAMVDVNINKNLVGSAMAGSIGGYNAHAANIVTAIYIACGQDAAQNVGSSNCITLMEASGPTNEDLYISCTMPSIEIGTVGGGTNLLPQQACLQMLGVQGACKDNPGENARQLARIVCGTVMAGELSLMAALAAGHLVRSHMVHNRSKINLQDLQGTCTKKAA

[3] = target: T3, 3-hydroxy-3-methylglutaryl-coenzyme A reductase (Mus musculus, UniProt Q01237); assay: In vitro inhibitory activity against isolated enzyme HMG-CoA reductase
T3 sequence (Q01237 whole entry): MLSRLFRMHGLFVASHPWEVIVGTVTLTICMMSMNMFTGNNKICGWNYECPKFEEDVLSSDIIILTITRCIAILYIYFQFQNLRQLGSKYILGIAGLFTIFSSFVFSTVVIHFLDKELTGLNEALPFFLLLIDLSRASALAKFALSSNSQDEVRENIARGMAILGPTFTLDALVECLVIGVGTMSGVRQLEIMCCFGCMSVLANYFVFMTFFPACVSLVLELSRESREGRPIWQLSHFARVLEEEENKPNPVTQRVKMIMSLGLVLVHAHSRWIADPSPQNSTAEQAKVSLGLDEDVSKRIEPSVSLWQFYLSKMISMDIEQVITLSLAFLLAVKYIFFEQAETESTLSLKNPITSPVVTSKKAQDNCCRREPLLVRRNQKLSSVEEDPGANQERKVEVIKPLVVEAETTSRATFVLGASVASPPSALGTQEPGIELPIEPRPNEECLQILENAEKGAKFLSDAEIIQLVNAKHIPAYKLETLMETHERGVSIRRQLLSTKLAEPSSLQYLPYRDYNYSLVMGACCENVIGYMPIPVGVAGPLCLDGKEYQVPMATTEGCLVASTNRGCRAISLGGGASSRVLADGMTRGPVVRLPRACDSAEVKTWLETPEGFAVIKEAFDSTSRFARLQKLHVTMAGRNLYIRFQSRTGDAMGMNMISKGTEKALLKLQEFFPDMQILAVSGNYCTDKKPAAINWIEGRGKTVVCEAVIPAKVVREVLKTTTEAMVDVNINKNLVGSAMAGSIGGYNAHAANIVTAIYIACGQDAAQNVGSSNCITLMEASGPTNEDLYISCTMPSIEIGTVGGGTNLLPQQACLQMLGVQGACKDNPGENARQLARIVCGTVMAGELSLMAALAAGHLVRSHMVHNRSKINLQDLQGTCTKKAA

[4] = target: T2, 3-hydroxy-3-methylglutaryl-coenzyme A reductase; assay: Compound was evaluated for inhibitory activity against HMG-CoA reductase in spleen cell preparation; format: tissue-based
[5] = target: T2, 3-hydroxy-3-methylglutaryl-coenzyme A reductase; assay: Compound was evaluated for inhibitory activity against HMG-CoA reductase in testes cell preparation; format: tissue-based, Testis
[6] = target: T1, 3-hydroxy-3-methylglutaryl-coenzyme A reductase; assay: Compound was evaluated for inhibitory activity against HMG-CoA reductase in adrenal cell preparation; format: cell-based
Hepatocyte = assay: Ratio of inhibitory activity of HepG2 to hepatocyte; format: cell-based

Compound | Ratio (HepG2) | IC50 [1] [nM] | IC50 [2] [nM] | IC50 [3] [nM] | IC50 [4] [µM] | IC50 [5] [nM] | IC50 [6] [nM] | Ratio (Hepatocyte)
O=C(O)C[C@H](O)C[C@H](O)/C=C/C(=C(c1ccc(F)cc1)c1ccc(F)cc1)n1cnnn1 | 86 | 1720 | 20 | 120 |  |  |  | 
Cn1nnnc1C(/C=C/[C@@H](O)C[C@@H](O)CC(=O)O)=C(c1ccc(F)cc1)c1ccc(F)cc1 | 62 | 1340 |  | 43 | 3.2 | 1800 | 1600 | 
Cc1nnnn1C(/C=C/[C@@H](O)C[C@@H](O)CC(=O)O)=C(c1ccc(F)cc1)c1ccc(F)cc1 |  | 1290 | 100 | 630 |  |  |  | 13
CC[C@H](C)C(=O)O[C@H]1C[C@@H](C)C=C2C=C[C@H](C)[C@H](CC[C@@H]3C[C@@H](O)CC(=O)O3)[C@H]21 [LOVASTATIN] |  |  |  | 27 |  |  |  | 
O=C(O)C[C@H](O)C[C@H](O)/C=C/C(=C(c1ccc(F)cc1)c1ccc(F)cc1)n1nnnc1-c1ccccc1 |  |  |  | > 100000 |  |  |  | 
